According to the NIST ThermoML archive (doi:10.1021/acs.jced.5b00246):
“And” between values parts separate entries of the source, which are not always exact repeats. Equal values may be shown once.

Details: 101.33 kPa, Liquid, NMR spin-echo technique

C[S+](C)[O-] [dimethyl sulfoxide]
Details | self diffusion coefficient [m2/s]
293.09 K | 6.55e-10
298.26 K | 7.46e-10
298.29 K | 7.45e-10
308.1 K | 9.1e-10
318.03 K | 1.12e-09
328.1 K | 1.34e-09
338.12 K | 1.59e-09
348.17 K | 1.84e-09
363.71 K | 2.29e-09

CC(C)CCCC(C)CCCC(C)CCCCC(C)CCCC(C)CCCC(C)C (stereo not given) [2,6,10,15,19,23-hexamethyltetracosane]
Details | self diffusion coefficient [m2/s]
270.4 K | 5.32e-12
273 K | 6.72e-12
283.3 K | 1.34e-11
283.6 K | 1.32e-11
288.28 K | 1.81e-11
293.13 K | 2.19e-11
293.19 K | 2.26e-11
298 K | 2.79e-11
298.19 K | 2.88e-11
298.44 K | 2.91e-11
303 K | 3.57e-11
303.18 K | 3.69e-11
312.99 K | 5.7e-11
314.3 K | 5.7e-11
322.69 K | 8.15e-11
322.72 K | 8.24e-11
323.16 K | 8.12e-11
325.7 K | 8.83e-11
333.03 K | 1.17e-10
333.49 K | 1.14e-10
334.8 K | 1.18e-10
342.81 K | 1.5e-10
344.9 K | 1.6e-10
348.2 K | 1.74e-10
352.82 K | 1.96e-10
353.15 K | 1.98e-10
362.6 K | 2.44e-10
362.82 K | 2.5e-10
362.88 K | 2.6e-10

C1COCCO1 [1,4-dioxane]
Details | self diffusion coefficient [m2/s]
288.31 K | 9.1e-10
288.33 K | 8.97e-10
293.11 K | 1.03e-09
298.13 K | 1.1e-09
298.17 K | 1.12e-09
298.18 K | 1.09e-09
298.2 K | 1.13e-09
303.12 K | 1.24e-09
307.92 K | 1.3e-09
308.06 K | 1.32e-09
317.85 K | 1.55e-09
318.24 K | 1.57e-09
327.94 K | 1.79e-09
327.95 K | 1.81e-09
338.09 K | 2.15e-09
338.12 K | 2.09e-09
338.13 K | 2.11e-09
347.87 K | 2.37e-09
347.97 K | 2.43e-09
358.25 K | 2.66e-09
358.49 K | 2.66e-09

CCCCCCCCCCCC [dodecane]
Details | self diffusion coefficient [m2/s]
264.14 K | 3.95e-10
266.5 K | 4.2e-10
268.03 K | 4.37e-10
278.2 K | 5.59e-10
278.52 K | 5.63e-10
278.56 K | 5.64e-10
278.72 K | 5.66e-10
288.09 K | 6.97e-10
288.49 K | 7.03e-10
288.52 K | 7.03e-10
298.15 K | 8.56e-10
298.2 K | 8.57e-10
298.21 K | 8.57e-10
308.15 K | 1.03e-09
308.16 K | 1.04e-09
318.15 K | 1.22e-09
318.16 K | 1.23e-09
323.17 K | 1.33e-09
328.17 K | 1.43e-09
328.22 K | 1.44e-09
328.25 K | 1.47e-09
333.14 K | 1.54e-09
337.93 K | 1.67e-09
337.97 K | 1.66e-09
337.99 K | 1.67e-09
348.08 K | 1.92e-09
352.75 K | 2.07e-09
352.77 K | 2.04e-09
364.53 K | 2.44e-09
364.54 K | 2.41e-09

CCCCCO [pentan-1-ol]
Details | self diffusion coefficient
253.13 K | 5.27e-11 m2/s
253.19 K | 5.32e-11 m2/s
258.42 K | 6.61e-11 m2/s
258.47 K | 6.61e-11 m2/s
263.25 K | 8.06e-11 m2/s
263.28 K | 8.11e-11 m2/s
268.65 K | 1.01e-10 m2/s
268.66 K | 1.02e-10 m2/s
278.4 K | 1.51e-10 m2/s
278.43 K | 1.52e-10 m2/s
288.31 K | 2.17e-10 m2/s
288.33 K | 2.17e-10 m2/s
298.16 K | 3.01e-10 m2/s
298.17 K | 3e-10 m2/s
298.19 K | 2.99e-10 m2/s
298.21 K | 3.02e-10 m2/s
298.27 K | 3.02e-10 m2/s
308.09 K | 4.13e-10 m2/s
308.11 K | 4.14e-10 m2/s
318.08 K | 5.54e-10 m2/s
318.09 K | 5.56e-10 m2/s
323.1 K | 6.39e-10 m2/s
323.15 K | 6.43e-10 m2/s
327.86 K | 7.3e-10 m2/s and 7.36e-10 m2/s
337.71 K | 9.56e-10 m2/s
337.74 K | 9.49e-10 m2/s
347.21 K | 1.22e-09 m2/s
347.25 K | 1.22e-09 m2/s
352.35 K | 1.4e-09 m2/s
352.36 K | 1.4e-09 m2/s
352.55 K | 1.41e-09 m2/s
364.52 K | 1.84e-09 m2/s
364.59 K | 1.83e-09 m2/s
364.73 K | 1.83e-09 m2/s

C1CCCCC1 [cyclohexane]
Details | self diffusion coefficient [m2/s]
283.47 K | 1.07e-09
283.53 K | 1.09e-09
288.31 K | 1.19e-09
288.32 K | 1.2e-09
298.12 K | 1.46e-09
298.15 K | 1.47e-09
308.02 K | 1.73e-09
308.03 K | 1.76e-09
308.16 K | 1.71e-09
308.17 K | 1.72e-09
317.68 K | 2.03e-09
317.73 K | 2.08e-09
318.22 K | 2.05e-09
318.25 K | 2.05e-09
323.04 K | 2.23e-09
328.13 K | 2.47e-09
328.15 K | 2.47e-09
333.02 K | 2.6e-09
333.05 K | 2.65e-09
342.79 K | 2.97e-09
348.16 K | 3.25e-09

Cc1ccccc1 [toluene]
Details | self diffusion coefficient
239.09 K | 7.12e-10 m2/s
240.94 K | 7.53e-10 m2/s
248.57 K | 8.98e-10 m2/s
251.71 K | 9.77e-10 m2/s
253.27 K | 1.01e-09 m2/s
253.28 K | 1.01e-09 m2/s
258.16 K | 1.13e-09 m2/s
258.23 K | 1.13e-09 m2/s
263.51 K | 1.24e-09 m2/s
268.32 K | 1.38e-09 m2/s
273.43 K | 1.5e-09 m2/s
273.54 K | 1.52e-09 m2/s
278.07 K | 1.67e-09 m2/s
278.15 K | 1.67e-09 m2/s
288.05 K | 1.98e-09 m2/s
293.08 K | 2.13e-09 m2/s
298 K | 2.3e-09 m2/s
298.18 K | 2.27e-09 m2/s
298.2 K | 2.32e-09 m2/s
298.21 K | 2.28e-09 m2/s and 2.3e-09 m2/s
308.07 K | 2.71e-09 m2/s
322.69 K | 3.15e-09 m2/s
323.16 K | 3.32e-09 m2/s
323.18 K | 3.3e-09 m2/s
332.93 K | 3.56e-09 m2/s
333.16 K | 3.56e-09 m2/s
343.45 K | 4.09e-09 m2/s

CCCCC(CC)COC(=O)c1ccccc1C(=O)OCC(CC)CCCC (stereo not given) [bis(2-ethylhexyl) 1,2-benzenedicarboxylate]
Details | self diffusion coefficient [m2/s]
268 K | 1.31e-12
273 K | 2.05e-12
283 K | 4.57e-12
298.1 K | 1.24e-11
303.18 K | 1.71e-11
303.2 K | 1.86e-11
312.89 K | 2.91e-11
313.2 K | 3.05e-11
322.7 K | 4.5e-11
322.84 K | 4.53e-11
322.88 K | 4.53e-11
323.03 K | 4.57e-11
323.05 K | 4.57e-11
323.1 K | 4.73e-11
332.7 K | 6.93e-11
333.16 K | 6.74e-11
333.2 K | 6.78e-11
342.5 K | 9.48e-11
343.65 K | 9.74e-11
343.7 K | 9.79e-11
352.86 K | 1.3e-10
352.88 K | 1.31e-10
362.72 K | 1.69e-10
362.75 K | 1.72e-10
